The structures appear in SMILES notation. Positions count from the first letter of the chain named. Read-outs that look alike come from different tables or passages of the source.

The text below walks through data of US8536354B2, “Steroidal ligands and their use in gene switch modulation” (Intrexon Corporation, priority 2008, dated 2013).

For test [1], the target named is T1, wild-type Choristoneura fumiferana EcR (CfEcR-DEF) (Choristoneura fumiferana, UniProt O77255).
T1 sequence (O77255 219-541): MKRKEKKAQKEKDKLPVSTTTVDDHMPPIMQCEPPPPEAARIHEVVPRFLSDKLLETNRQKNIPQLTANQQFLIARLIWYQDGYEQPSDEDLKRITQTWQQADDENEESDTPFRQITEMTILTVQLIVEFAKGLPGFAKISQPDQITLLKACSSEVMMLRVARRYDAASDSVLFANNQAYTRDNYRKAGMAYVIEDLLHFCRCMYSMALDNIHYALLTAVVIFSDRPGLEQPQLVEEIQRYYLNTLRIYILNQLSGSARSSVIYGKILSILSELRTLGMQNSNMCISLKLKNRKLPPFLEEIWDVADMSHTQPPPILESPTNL
T1 sequence (P28702 299-449 partner): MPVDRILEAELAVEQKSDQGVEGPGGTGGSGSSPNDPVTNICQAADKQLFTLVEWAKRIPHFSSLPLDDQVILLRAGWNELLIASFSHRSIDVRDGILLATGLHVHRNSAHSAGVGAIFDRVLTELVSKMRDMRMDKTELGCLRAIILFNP
Kind of test: Two-hybrid gene switch assay, wild-type CfEcR-DEF (GAL4-EcR / VP16-RXR-USP chimera, luciferase) in NIH3T3 cells. The conditions noted are these: for Emax: NIH3T3, 48 h, read-out: rel max FI (diacylhydrazine), CF.

Test [2] addresses wild-type Drosophila melanogaster EcR (DmEcR; GAL4-EcR DEF with VP16-RXR-USP chimera) (Drosophila melanogaster, UniProt P34021). Kind of test: Two-hybrid gene switch assay, luciferase reporter, wild-type DmEcR, mouse NIH3T3 cells. The class given is cell-based. The conditions noted are these: EC50, FIG. 8. On the technique in general: A reporter such as luciferase makes a cellular process visible.

In test [3] the target is T2, wild-type CfEcR (GAL4-CfEcR-DEF with VP16-RXR-USP chimera) (Choristoneura fumiferana, UniProt O77255).
T2 sequence (O77255 219-541): T1 sequence (O77255 219-541) with E230A
T2 sequence (P28702 1-533 partner): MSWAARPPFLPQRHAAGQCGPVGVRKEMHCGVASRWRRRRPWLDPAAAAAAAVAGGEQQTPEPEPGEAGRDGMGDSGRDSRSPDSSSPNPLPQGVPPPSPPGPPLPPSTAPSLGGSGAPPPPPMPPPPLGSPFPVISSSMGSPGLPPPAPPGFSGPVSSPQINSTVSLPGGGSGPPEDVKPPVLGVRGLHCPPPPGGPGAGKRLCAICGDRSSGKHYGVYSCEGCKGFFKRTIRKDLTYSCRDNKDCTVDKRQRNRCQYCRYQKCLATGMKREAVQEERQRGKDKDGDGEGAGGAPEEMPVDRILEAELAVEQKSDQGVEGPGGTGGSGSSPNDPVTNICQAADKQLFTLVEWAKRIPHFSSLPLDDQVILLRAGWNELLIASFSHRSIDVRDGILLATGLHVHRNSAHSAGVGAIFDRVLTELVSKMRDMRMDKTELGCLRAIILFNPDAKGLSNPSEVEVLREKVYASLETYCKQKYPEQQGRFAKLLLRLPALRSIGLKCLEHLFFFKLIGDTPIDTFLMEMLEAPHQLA
As to the kind of experiment: Two-hybrid gene switch assay, luciferase reporter, wild-type CfEcR, mouse NIH3T3 cells.

Test [4] addresses wild-type Aedes aegypti EcR (AaEcR; GAL4-EcR DEF with VP16-RXR-USP chimera) (Aedes aegypti, UniProt P49880). Kind of test: Two-hybrid gene switch assay, luciferase reporter, wild-type AaEcR, mouse NIH3T3 cells. The test is classed as cell-based.

Chain of wild-type Drosophila melanogaster EcR (DmEcR; GAL4-EcR DEF with VP16-RXR-USP chimera) (P34021 with tags, fused parts or gaps limits assumed): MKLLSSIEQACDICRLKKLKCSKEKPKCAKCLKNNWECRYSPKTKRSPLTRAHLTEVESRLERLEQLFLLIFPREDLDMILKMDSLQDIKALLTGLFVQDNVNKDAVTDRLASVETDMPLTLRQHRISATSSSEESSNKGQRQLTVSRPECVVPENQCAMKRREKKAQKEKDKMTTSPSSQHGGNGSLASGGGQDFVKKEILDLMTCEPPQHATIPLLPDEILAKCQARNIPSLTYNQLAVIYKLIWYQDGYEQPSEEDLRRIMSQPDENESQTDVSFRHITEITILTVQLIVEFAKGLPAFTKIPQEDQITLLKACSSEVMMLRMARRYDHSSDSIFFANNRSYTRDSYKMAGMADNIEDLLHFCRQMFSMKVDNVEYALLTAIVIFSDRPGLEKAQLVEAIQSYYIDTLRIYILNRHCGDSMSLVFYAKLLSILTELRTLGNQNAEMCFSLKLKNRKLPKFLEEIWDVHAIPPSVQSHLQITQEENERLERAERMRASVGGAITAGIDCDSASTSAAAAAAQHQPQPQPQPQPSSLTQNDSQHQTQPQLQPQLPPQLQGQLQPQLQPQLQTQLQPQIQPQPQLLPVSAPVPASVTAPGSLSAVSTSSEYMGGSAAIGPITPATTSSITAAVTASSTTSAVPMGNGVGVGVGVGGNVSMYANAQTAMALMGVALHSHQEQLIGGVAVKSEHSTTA
Chain of wild-type Aedes aegypti EcR (AaEcR; GAL4-EcR DEF with VP16-RXR-USP chimera) (P49880 with tags, fused parts or gaps limits assumed, change not shown): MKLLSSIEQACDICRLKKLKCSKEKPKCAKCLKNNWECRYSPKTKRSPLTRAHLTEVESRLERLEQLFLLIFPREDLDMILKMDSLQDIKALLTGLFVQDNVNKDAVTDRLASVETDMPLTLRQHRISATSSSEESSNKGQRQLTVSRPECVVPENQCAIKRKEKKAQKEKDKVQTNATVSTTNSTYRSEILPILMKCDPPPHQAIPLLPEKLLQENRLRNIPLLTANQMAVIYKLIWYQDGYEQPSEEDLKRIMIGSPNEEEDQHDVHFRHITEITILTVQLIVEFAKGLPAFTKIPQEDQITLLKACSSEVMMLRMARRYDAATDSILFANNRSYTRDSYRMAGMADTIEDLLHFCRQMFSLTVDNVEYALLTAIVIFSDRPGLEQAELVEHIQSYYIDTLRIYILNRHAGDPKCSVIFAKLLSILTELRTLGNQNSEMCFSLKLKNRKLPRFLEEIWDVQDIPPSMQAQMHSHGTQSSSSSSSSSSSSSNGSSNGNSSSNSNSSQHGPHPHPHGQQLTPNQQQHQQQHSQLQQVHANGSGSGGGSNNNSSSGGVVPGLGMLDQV

Consider `CCO[C@H](CCC(C)(C)O)[C@](C)(O)C1CC[C@@]2(O)C3=CC(=O)C4C[C@@H](O)[C@@H](O)CC4(C)C3CCC12C` (stereo partly drawn) [20E-22-ethyl ether], for which the Emax in test [1] is 77%.

In the case of `CCCO[C@H](CCC(C)(C)O)[C@](C)(O)C1CC[C@@]2(O)C3=CC(=O)C4C[C@@H](O)[C@@H](O)CC4(C)C3CCC12C` (stereo partly drawn) [20E-22-n-propyl ether], in test [1], the concentration giving a half-maximal response (EC50) (usually the midpoint of the concentration-response curve) was greater than 33 µM and the Emax came to 0.5%.

Consider `COC(C)(C)CCC(O)C(C)(O)C1CCC2(O)C3=CC(=O)C4CC(O)C(O)CC4(C)C3CCC12C` (stereo not drawn) [20E-25-methyl ether], for which, in test [1], the EC50 was greater than 33 µM and the Emax came out at 0.13%.

`C=CCO[C@H](CCC(C)(C)O)[C@](C)(O)C1CC[C@@]2(O)C3=CC(=O)C4C[C@@H](O)[C@@H](O)CC4(C)C3CCC12C` (stereo partly drawn) [Compound 7]: the EC50 is roughly 5 µM in test [2] and greater than 33 µM in test [3].

Regarding `CCCCO[C@H](CCC(C)(C)O)[C@](C)(O)C1CC[C@@]2(O)C3=CC(=O)C4C[C@@H](O)[C@@H](O)CC4(C)C3CCC12C` (stereo partly drawn) [Compound 8], the concentration giving a half-maximal response (EC50) in test [2] was 14.6 µM; in test [4] (FIG. 8, read-out: EC50), 2.72 µM; in test [3] it was greater than 33 µM.

Consider `CC(C)(O)CC[C@@H](OCc1ccccc1)[C@](C)(O)C1CC[C@@]2(O)C3=CC(=O)C4C[C@@H](O)[C@@H](O)CC4(C)C3CCC12C` (stereo partly drawn) [Compound 9], for which the EC50 in test [3] is greater than 33 µM.

Turning to `COC(C)(C)CC[C@@H](O)[C@](C)(O)[C@H]1CC[C@@]2(O)C3=CC(=O)[C@@H]4C[C@@H](O)[C@@H](O)C[C@]4(C)[C@H]3CC[C@]12C` [Compound 10], the EC50 is 5.45 µM in test [2] and roughly 0.3 µM in test [4] (EC50, FIG. 8).

Take `CO[C@H](CCC(C)(C)OC)[C@](C)(O)[C@H]1CC[C@@]2(O)C3=CC(=O)[C@@H]4C[C@@H](O)[C@@H](O)C[C@]4(C)[C@H]3CC[C@]12C` [Compound 14]: the figures for the EC50 in test [2] and in test [3] were 1.58 µM and greater than 33 µM, respectively.

In turn, `CO[C@H]1CC2(C)C(C[C@H]1OC)C(=O)C=C1C2CCC2(C)C([C@@](C)(O)[C@@H](CCC(C)(C)O)OC)CC[C@@]12OC` (stereo partly drawn) [Compound 15] gave an EC50 in test [3] greater than 33 µM.

As for `CO[C@@]12CC[C@H]([C@@](C)(O)[C@H](O)CCC(C)C)[C@@]1(C)CC[C@H]1C2=CC(=O)[C@@H]2C[C@@H](O)[C@@H](O)C[C@@]21C` [Compound 17], the EC50 in test [3] was roughly 20 µM.

In test [3], `CO[C@H]1C[C@@]2(C)[C@@H](C[C@H]1O)C(=O)C=C1[C@@H]2CC[C@]2(C)[C@@H]([C@@](C)(O)[C@@H](CCC(C)C)OC)CC[C@@]12O` [Compound 19] registered an EC50 of 27.8 µM.

Take `CO[C@H](CCC(C)C)[C@](C)(O)[C@H]1CC[C@@]2(OC)C3=CC(=O)[C@@H]4C[C@@H](O)[C@@H](O)C[C@]4(C)[C@H]3CC[C@]12C` [Compound 21]: the EC50 in test [3] was greater than 33 µM.

In test [3], `CO[C@H](CCC(C)C)[C@](C)(O)C1CC[C@@]2(O)C3=CC(=O)C4C[C@@H](O)[C@@H](O)CC4(C)C3=CCC12C` (stereo partly drawn) [Compound 22] yielded an EC50 of 13.7 µM.

In test [3], `CC(C(O)CCC(C)(C)O)C1CCC2(O)C3=CC(=O)C4CC(O)C(O)CC4(C)C3CCC12C` (stereo not drawn) [Compound 24] gave a concentration giving a half-maximal response (EC50) greater than 33 µM.

For the compound `CC(C)(O)CC[C@@H](O)[C@](C)(O)[C@H]1CC[C@@]2(O)C3=CC(=O)[C@@H]4C[C@@H](O)[C@@H](O)C[C@]4(C)[C@H]3CC[C@]12C` [Compound 25], the EC50 in test [4] (FIG. 8, read-out: EC50) was determined as 0.93 µM.

With `CC(C)CCC(O)C(C)(O)C1CCC2(O)C3=CC(=O)C4(O)CC(O)C(O)CC4(C)C3C(O)CC12C` (stereo not drawn) [Compound 28], it took 0.112 µM to reach a half-maximal effect in test [2] (EC50).

In test [1] (wt-CfEcR gene switch, NIH3T3, Example One), `CC(C)(O)CC[C@@H](O)[C@](C)(O)[C@H]1CC[C@@]2(O)C3=CC(=O)[C@]4(O)C[C@@H](O)[C@@H](O)C[C@]4(C)[C@H]3CC[C@]12C` [polypodine B, reference compound] came in with a concentration giving a half-maximal response (EC50) of roughly 12 µM.
